Test results as given in article PMC5218480 (PLoS ONE, 2017).

System: MV-4-11 cells
Assay: Gene expression microarray analysis (Affymetrix PrimeView) and GSEA
Format: cell-based, human
Set-up: RFU PODN (11730768_x_at) / Fold change /veh PODN (11730768_x_at) / RFU LINC00158 (11744669_a_at) / Fold change /veh LINC00158 (11744669_a_at) / RFU DUSP10 (11751237_a_at) / Fold change /veh DUSP10 (11751237_a_at) / RFU ID3 (11757404_x_at) / Fold change /veh ID3 (11757404_x_at) / RFU PLEKHG5 (11737974_s_at) / Fold change /veh PLEKHG5 (11737974_s_at) / RFU LRRC4B (11730491_at) / Fold change /veh LRRC4B (11730491_at) / RFU GIMAP4 (11747438_a_at) / Fold change /veh GIMAP4 (11747438_a_at) / RFU KRT8 (11758183_x_at) / Fold change /veh KRT8 (11758183_x_at) / RFU CNN1 (11734310_a_at) / Fold change /veh CNN1 (11734310_a_at) / RFU VPS37D (11726825_at) / Fold change /veh VPS37D (11726825_at) / RFU C10orf10 (11716522_x_at) / Fold change /veh C10orf10 (11716522_x_at) / RFU KIR2DL2 /// KIR2DL4 /// KIR2DL5A /// KIR2DL5B /// KIR2DS1 /// KIR2DS2 /// KIR2DS3 /// KIR2DS4 /// KIR3DL3 /// KIR3DL3 /// KIR3DS1 (11738374_at) / Fold change /veh KIR2DL2 /// KIR2DL4 /// KIR2DL5A /// KIR2DL5B /// KIR2DS1 /// KIR2DS2 /// KIR2DS3 /// KIR2DS4 /// KIR3DL3 /// KIR3DL3 /// KIR3DS1 (11738374_at) / RFU C1QL1 (11718748_at) / Fold change /veh C1QL1 (11718748_at) / RFU TMPRSS4 (11747572_a_at) / Fold change /veh TMPRSS4 (11747572_a_at) / RFU HAMP (11756126_x_at) / Fold change /veh HAMP (11756126_x_at) / RFU RNFT2 (11725882_a_at) / Fold change /veh RNFT2 (11725882_a_at) / RFU NR4A2 (11747474_a_at) / Fold change /veh NR4A2 (11747474_a_at) / RFU ABCC12 (11746883_a_at) / Fold change /veh ABCC12 (11746883_a_at) / RFU TMEM136 (11760407_x_at) / Fold change /veh TMEM136 (11760407_x_at) / RFU CLDN22 /// WWC2 (11732394_at) / Fold change /veh CLDN22 /// WWC2 (11732394_at) / RFU HLA-DPB1 (11760878_x_at) / Fold change /veh HLA-DPB1 (11760878_x_at) / RFU SPINT1 (11716480_a_at) / Fold change /veh SPINT1 (11716480_a_at) / RFU GAP43 (11754022_s_at) / Fold change /veh GAP43 (11754022_s_at) / RFU A4GNT (11735810_at) / Fold change /veh A4GNT (11735810_at) / RFU PRB3 (11715151_x_at) / Fold change /veh PRB3 (11715151_x_at) / RFU TUBB4B (11761932_at) / Fold change /veh TUBB4B (11761932_at) / RFU CAPN14 (11732068_a_at) / Fold change /veh CAPN14 (11732068_a_at) / RFU TMCC2 (11721928_a_at) / Fold change /veh TMCC2 (11721928_a_at) / RFU IRGQ (11745062_a_at) / Fold change /veh IRGQ (11745062_a_at) / RFU FAM174B (11720279_a_at) / Fold change /veh FAM174B (11720279_a_at) / RFU TMPRSS4 (11748680_a_at) / Fold change /veh TMPRSS4 (11748680_a_at) / RFU FAM212B (11763350_a_at) / Fold change /veh FAM212B (11763350_a_at) / RFU PLEKHG5 (11743358_a_at) / Fold change /veh PLEKHG5 (11743358_a_at) / RFU ZSCAN30 (11745921_a_at) / Fold change /veh ZSCAN30 (11745921_a_at) / RFU CMKLR1 (11741424_a_at) / Fold change /veh CMKLR1 (11741424_a_at) / RFU LOC101060620 /// MAPK8IP1 (11723275_at) / Fold change /veh LOC101060620 /// MAPK8IP1 (11723275_at) / RFU SPTSSB (11747773_x_at) / Fold change /veh SPTSSB (11747773_x_at) / RFU PRSS12 (11739890_at) / Fold change /veh PRSS12 (11739890_at) / RFU BIN1 (11741810_x_at) / Fold change /veh BIN1 (11741810_x_at) / RFU WNT11 (11732464_a_at) / Fold change /veh WNT11 (11732464_a_at) / RFU C10orf10 (11716521_a_at) / Fold change /veh C10orf10 (11716521_a_at) / RFU C5orf56 (11738089_at) / Fold change /veh C5orf56 (11738089_at) / RFU CYB561 (11721691_x_at) / Fold change /veh CYB561 (11721691_x_at) / RFU ANKRD19P (11752326_a_at) / Fold change /veh ANKRD19P (11752326_a_at) / RFU OR2T12 /// OR2T33 /// OR2T8 (11738714_s_at) / Fold change /veh OR2T12 /// OR2T33 /// OR2T8 (11738714_s_at) / RFU VCAN (11748164_a_at) / Fold change /veh VCAN (11748164_a_at) / RFU JSRP1 (11732532_at) / Fold change /veh JSRP1 (11732532_at) / RFU KRTAP10-11 (11738290_x_at) / Fold change /veh KRTAP10-11 (11738290_x_at) / RFU MYO3A (11730013_a_at) / Fold change /veh MYO3A (11730013_a_at) / RFU EBF3 (11725865_a_at) / Fold change /veh EBF3 (11725865_a_at) / RFU CAMK2N1 (11719241_x_at) / Fold change /veh CAMK2N1 (11719241_x_at) / RFU C5orf56 (11738088_a_at) / Fold change /veh C5orf56 (11738088_a_at) / RFU OLFML3 (11715873_a_at) / Fold change /veh OLFML3 (11715873_a_at) / RFU LOC100653217 /// NTM (11731650_a_at) / Fold change /veh LOC100653217 /// NTM (11731650_a_at) / RFU MAPK11 (11762145_a_at) / Fold change /veh MAPK11 (11762145_a_at) / RFU FIZ1 (11724087_x_at) / Fold change /veh FIZ1 (11724087_x_at) / RFU OASL (11726364_x_at) / Fold change /veh OASL (11726364_x_at) / RFU SOX15 (11748057_x_at) / Fold change /veh SOX15 (11748057_x_at) / RFU CD79A (11719716_a_at) / Fold change /veh CD79A (11719716_a_at) / RFU HIST1H1D (11736915_at) / Fold change /veh HIST1H1D (11736915_at) / RFU CASKIN2 (11723855_a_at) / Fold change /veh CASKIN2 (11723855_a_at) / RFU LOC730098 (11760151_x_at) / Fold change /veh LOC730098 (11760151_x_at) / RFU OR4N2 (11742367_at) / Fold change /veh OR4N2 (11742367_at) / RFU PRRT2 (11749266_a_at) / Fold change /veh PRRT2 (11749266_a_at) / RFU SNX32 (11753110_a_at) / Fold change /veh SNX32 (11753110_a_at) / RFU CDHR5 (11726645_a_at) / Fold change /veh CDHR5 (11726645_a_at) / RFU RCAN1 (11760418_a_at) / Fold change /veh RCAN1 (11760418_a_at) / RFU FAM167A (11723789_a_at) / Fold change /veh FAM167A (11723789_a_at) / RFU FAM26E (11764081_at) / Fold change /veh FAM26E (11764081_at) / RFU ISYNA1 (11749810_s_at) / Fold change /veh ISYNA1 (11749810_s_at) / RFU ACY1 (11761880_at) / Fold change /veh ACY1 (11761880_at) / RFU 11764098_at / Fold change /veh 11764098_at / RFU SAMD14 (11745864_x_at) / Fold change /veh SAMD14 (11745864_x_at) / RFU NPB (11741838_a_at) / Fold change /veh NPB (11741838_a_at) / RFU TMPRSS6 (11731388_a_at) / Fold change /veh TMPRSS6 (11731388_a_at) / RFU KRTAP10-2 (11738614_at) / Fold change /veh KRTAP10-2 (11738614_at) / RFU ARHGAP8 /// PRR5-ARHGAP8 (11727945_x_at) / Fold change /veh ARHGAP8 /// PRR5-ARHGAP8 (11727945_x_at) / RFU KRTAP5-7 /// NADSYN1 (11734609_at) / Fold change /veh KRTAP5-7 /// NADSYN1 (11734609_at) / RFU RASL12 (11751679_a_at) / Fold change /veh RASL12 (11751679_a_at) / RFU CDKN2B (11736163_a_at) / Fold change /veh CDKN2B (11736163_a_at) / RFU PRF1 (11729649_at) / Fold change /veh PRF1 (11729649_at) / RFU, ZNF638 /// ZNF638-IT1 / Fold change vs veh, ZNF638 /// ZNF638-IT1 / RFU, PANK3 / Fold change vs veh, PANK3 / RFU, SH3YL1 / Fold change vs veh, SH3YL1 / RFU, ZEB2 / Fold change vs veh, ZEB2 / RFU, NRIP1 / Fold change vs veh, NRIP1 / RFU, PTTG1IP / Fold change vs veh, PTTG1IP / RFU, CAPN2 / Fold change vs veh, CAPN2 / RFU, MED14 / Fold change vs veh, MED14 / RFU, SNORA58 / Fold change vs veh, SNORA58 / RFU, C1orf63 / Fold change vs veh, C1orf63 / RFU, LRRFIP1 / Fold change vs veh, LRRFIP1 / RFU, NDUFAF7 / Fold change vs veh, NDUFAF7 / RFU, SLC12A2 / Fold change vs veh, SLC12A2 / RFU, IBTK / Fold change vs veh, IBTK / RFU, ESF1 / Fold change vs veh, ESF1 / Fold change vs veh, TMEM50B / RFU, TAOK1 / Fold change vs veh, TAOK1 / RFU, ACBD3 / Fold change vs veh, ACBD3 / RFU, TMA16 / Fold change vs veh, TMA16 / RFU, RWDD3 / Fold change vs veh, RWDD3 / RFU, BCAT1 / Fold change vs veh, BCAT1 / RFU, EDEM3 / Fold change vs veh, EDEM3 / RFU, TMEM33 / Fold change vs veh, TMEM33 / RFU, WDR75 / Fold change vs veh, WDR75 / RFU, AHCTF1 / Fold change vs veh, AHCTF1 / RFU, TFRC / Fold change vs veh, TFRC / RFU, ZDHHC17 / Fold change vs veh, ZDHHC17 / RFU, NOM1 / Fold change vs veh, NOM1 / RFU, ARL8B / Fold change vs veh, ARL8B / RFU, ZBTB11 / Fold change vs veh, ZBTB11 / RFU, TAMM41 / Fold change vs veh, TAMM41 / RFU, KIAA1704 /// LOC100996395 / Fold change vs veh, KIAA1704 /// LOC100996395 / RFU, ING1 / Fold change vs veh, ING1 / RFU, TRMT61B / Fold change vs veh, TRMT61B / RFU, FUBP3 / Fold change vs veh, FUBP3 / RFU, TP53 / Fold change vs veh, TP53 / RFU, TNKS2 / Fold change vs veh, TNKS2 / RFU, ZFP14 / Fold change vs veh, ZFP14 / RFU, ACTR2 / Fold change vs veh, ACTR2 / RFU, PPP3R1 / Fold change vs veh, PPP3R1 / RFU, PIK3R1 / Fold change vs veh, PIK3R1 / RFU, HNRNPA1 / Fold change vs veh, HNRNPA1 / RFU, RNF170 / Fold change vs veh, RNF170 / RFU, ZNF28 / Fold change vs veh, ZNF28 / RFU, RNGTT / Fold change vs veh, RNGTT / RFU, OGT / Fold change vs veh, OGT / RFU, BRD1 / Fold change vs veh, BRD1 / RFU, MARS / Fold change vs veh, MARS / RFU, ZNF655 / Fold change vs veh, ZNF655 / RFU, FAHD1 / Fold change vs veh, FAHD1 / RFU, BDP1 / Fold change vs veh, BDP1 / RFU, LRRCC1 / Fold change vs veh, LRRCC1 / RFU, ARID1A / Fold change vs veh, ARID1A / RFU, ZNF146 / Fold change vs veh, ZNF146 / RFU, ZNF330 / Fold change vs veh, ZNF330 / RFU, GPN3 / Fold change vs veh, GPN3 / RFU, C9orf123 / Fold change vs veh, C9orf123 / RFU, N4BP2L2 / Fold change vs veh, N4BP2L2 / RFU, ARFIP1 / Fold change vs veh, ARFIP1 / RFU, FAM179B / Fold change vs veh, FAM179B / RFU, BCL10 / Fold change vs veh, BCL10 / RFU, UHRF1BP1L / Fold change vs veh, UHRF1BP1L / RFU, BET1 / Fold change vs veh, BET1 / RFU, CNOT2 / Fold change vs veh, CNOT2 / RFU, ZNF268 / Fold change vs veh, ZNF268 / Fold change vs veh, ZNF507 / RFU, DGCR2 / Fold change vs veh, DGCR2 / RFU, WDSUB1 / Fold change vs veh, WDSUB1 / Fold change vs veh, HSP90B1 /// MIR3652 / RFU, ADSS / Fold change vs veh, ADSS / RFU, GK / Fold change vs veh, GK / RFU, ZNF148 / Fold change vs veh, ZNF148 / RFU, TAF9 / Fold change vs veh, TAF9 / RFU, SLC1A5 / Fold change vs veh, SLC1A5 / RFU, SLMO2 / Fold change vs veh, SLMO2 / RFU, ABCC4 / Fold change vs veh, ABCC4 / RFU, LOC101060439 /// RAP1B / Fold change vs veh, LOC101060439 /// RAP1B / RFU, RFX7 / Fold change vs veh, RFX7 / RFU, GTPBP10 / Fold change vs veh, GTPBP10 / RFU, CNEP1R1 / Fold change vs veh, CNEP1R1 / RFU, BIVM-ERCC5 /// ERCC5 / Fold change vs veh, BIVM-ERCC5 /// ERCC5 / RFU, ILF3 / Fold change vs veh, ILF3 / RFU 11762660_at / Fold change /veh 11762660_at / RFU VCAN (11757783_s_at) / Fold change /veh VCAN (11757783_s_at) / RFU DDX43 (11728927_at) / Fold change /veh DDX43 (11728927_at) / RFU KRT8 (11758188_x_at) / Fold change /veh KRT8 (11758188_x_at) / RFU NKD1 (11759106_at) / Fold change /veh NKD1 (11759106_at) / RFU SRD5A1 (11742802_a_at) / Fold change /veh SRD5A1 (11742802_a_at) / RFU TPSAB1 /// TPSB2 (11721975_s_at) / Fold change /veh TPSAB1 /// TPSB2 (11721975_s_at) / RFU GSTM3 (11746129_a_at) / Fold change /veh GSTM3 (11746129_a_at) / RFU IL23R (11737362_x_at) / Fold change /veh IL23R (11737362_x_at) / RFU TMEM51 (11727254_a_at) / Fold change /veh TMEM51 (11727254_a_at) / RFU PIWIL2 (11732686_x_at) / Fold change /veh PIWIL2 (11732686_x_at) / RFU ORM1 (11744905_x_at) / Fold change /veh ORM1 (11744905_x_at) / RFU CCDC152 (11743942_at) / Fold change /veh CCDC152 (11743942_at) / RFU ECM1 (11717891_a_at) / Fold change /veh ECM1 (11717891_a_at) / RFU IL23R (11748794_a_at) / Fold change /veh IL23R (11748794_a_at) / RFU TNFAIP8L3 (11732012_x_at) / Fold change /veh TNFAIP8L3 (11732012_x_at) / RFU MBOAT4 (11741988_at) / Fold change /veh MBOAT4 (11741988_at) / RFU 11764193_at / Fold change /veh 11764193_at / RFU TMEM53 (11763286_at) / Fold change /veh TMEM53 (11763286_at) / RFU MAGEB2 (11727129_at) / Fold change /veh MAGEB2 (11727129_at) / RFU TMEM200A (11744735_a_at) / Fold change /veh TMEM200A (11744735_a_at) / RFU CCDC152 (11751479_a_at) / Fold change /veh CCDC152 (11751479_a_at) / RFU FAM211A (11726209_a_at) / Fold change /veh FAM211A (11726209_a_at) / RFU RGS16 (11746705_a_at) / Fold change /veh RGS16 (11746705_a_at) / RFU VCAN (11755009_s_at) / Fold change /veh VCAN (11755009_s_at) / RFU RHOB (11743442_s_at) / Fold change /veh RHOB (11743442_s_at) / RFU RGS16 (11720943_a_at) / Fold change /veh RGS16 (11720943_a_at) / RFU RGS16 (11720944_at) / Fold change /veh RGS16 (11720944_at) / RFU, VPS4B / Fold change vs veh, VPS4B / RFU, CREB1 / Fold change vs veh, CREB1 / RFU, DNAJC13 / Fold change vs veh, DNAJC13 / RFU, GNAQ / Fold change vs veh, GNAQ / RFU, CDK5R1 / Fold change vs veh, CDK5R1 / RFU, ZRANB3 / Fold change vs veh, ZRANB3 / RFU, CUL4A / Fold change vs veh, CUL4A / RFU, CCNY / Fold change vs veh, CCNY / RFU, UFL1 / Fold change vs veh, UFL1 / RFU, COG3 / Fold change vs veh, COG3 / RFU, DIAPH2 / Fold change vs veh, DIAPH2 / RFU, SKA2 / Fold change vs veh, SKA2 / RFU, AFF3 / Fold change vs veh, AFF3 / RFU, LMF1 / Fold change vs veh, LMF1 / RFU, IPO11 / Fold change vs veh, IPO11 / RFU, DFFB / Fold change vs veh, DFFB / RFU, FOXP1 / Fold change vs veh, FOXP1 / RFU, CARD8 / Fold change vs veh, CARD8 / RFU, STRN3 / Fold change vs veh, STRN3 / RFU, ADK / Fold change vs veh, ADK / RFU, RASSF2 / Fold change vs veh, RASSF2 / RFU, WIPF1 / Fold change vs veh, WIPF1 / RFU, LARP1B / Fold change vs veh, LARP1B / RFU, RASA1 / Fold change vs veh, RASA1 / RFU, RB1 / Fold change vs veh, RB1 / RFU, PPFIA1 / Fold change vs veh, PPFIA1 / RFU, MAT2A / Fold change vs veh, MAT2A / RFU, CCT5 / Fold change vs veh, CCT5 / RFU, WDR92 / Fold change vs veh, WDR92 / RFU, CUX1 / Fold change vs veh, CUX1 / RFU, TTC7A / Fold change vs veh, TTC7A / RFU, TMEM135 / Fold change vs veh, TMEM135 / RFU, DEPTOR / Fold change vs veh, DEPTOR / RFU, CPM / Fold change vs veh, CPM / RFU, DNAJB6 / Fold change vs veh, DNAJB6 / RFU, CACNA2D3 / Fold change vs veh, CACNA2D3 / RFU, DTX4 / Fold change vs veh, DTX4 / RFU, TFCP2 / Fold change vs veh, TFCP2 / RFU, GMCL1 /// GMCL1P1 / Fold change vs veh, GMCL1 /// GMCL1P1 / RFU, AEBP2 / Fold change vs veh, AEBP2 / RFU, SNHG1 /// SNORD22 /// SNORD25 /// SNORD26 /// SNORD27 /// SNORD28 /// SNORD29 /// SNORD31 / Fold change vs veh, SNHG1 /// SNORD22 /// SNORD25 /// SNORD26 /// SNORD27 /// SNORD28 /// SNORD29 /// SNORD31 / Fold change (Aza/veh), C12orf56 (ProbeSet 11735607_a_at) / Fold change (ACY-1035/veh), C12orf56 (ProbeSet 11735607_a_at) / Fold change (Aza/veh), FGFR1OP (ProbeSet 11751329_s_at) / Fold change (ACY-1035/veh), FGFR1OP (ProbeSet 11751329_s_at) / Fold change (Aza/veh), VPS36 (ProbeSet 11739960_a_at) / Fold change (ACY-1035/veh), VPS36 (ProbeSet 11739960_a_at) / RFU SYPL1 (11715823_x_at) / Fold change /veh SYPL1 (11715823_x_at) / RFU IGFBP7 (11715501_s_at) / Fold change /veh IGFBP7 (11715501_s_at) / RFU REEP3 (11722064_at) / Fold change /veh REEP3 (11722064_at) / RFU IGLL1 (11728026_x_at) / Fold change /veh IGLL1 (11728026_x_at): dose or concentration left out as unconfirmed
Settings: MV-4-11 cells, 48 hours

`Nc1ccc(-c2cccs2)cc1NC(=O)c1ccc2c(c1)cc(C1CC1)n2CCN1CCOCC1` [ACY-1035] was tested, and the “Fold change /veh TMEM53 (11763286_at)” value was 0.91.
